In this test the target is human JAK1 (a.a. 837-1142). The test is described as follows: In vitro JAK kinase assay (HTRF, phosphorylation of a biotinylated peptide), JAK1. The class given is biochemical. Particulars: measured at 1 mM ATP; JAK2 IC50 / JAK1 IC50. In outline:
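N-terminal His-tagged catalytic domains, baculovirus-expressed in insect cells, phosphorylated a biotinylated peptide for 1 hr at room temperature. EDTA stop was followed by SA-APC and Eu-Py20 antibody for 40 minutes, with phosphopeptide read by HTRF.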

Take `N#CCC1(n2cc(-c3ncnc4[nH]ccc34)cn2)CN(C2CCN(C(=O)Nc3cc(F)cc(F)c3F)CC2)C1` [Example 173, 4-{3-(cyanomethyl)-3-[4-(7H-pyrrolo[2,3-d]pyrimidin-4-yl)-1H-pyrazol-1-yl]azetidin-1-yl}-N-(2,3,5-trifluorophenyl)piperidine-1-carboxamide]: the “IC50 Ratio JAK2/JAK1” value turned out to be 5.7.

For the compound `N#CCC1(n2cc(-c3ncnc4[nH]ccc34)cn2)CN(C2CCN(Cc3ccc(F)c(C#N)c3)CC2)C1` [Example 220, 5-[(4-{3-(cyanomethyl)-3-[4-(7H-pyrrolo[2,3-d]pyrimidin-4-yl)-1H-pyrazol-1-yl]azetidin-1-yl}piperidin-1-yl)methyl]-2-fluorobenzonitrile], the “IC50 Ratio JAK2/JAK1” value came out at 4.4.

Regarding `N#CCC1(n2cc(-c3ncnc4[nH]ccc34)cn2)CN(C2CCN(C(=O)c3ccc(F)c(Cl)c3)CC2)C1` [Example 34, {1-[1-(3-chloro-4-fluorobenzoyl)piperidin-4-yl]-3-[4-(7H-pyrrolo[2,3-d]pyrimidin-4-yl)-1H-pyrazol-1-yl]azetidin-3-yl}acetonitrile], the “IC50 Ratio JAK2/JAK1” value is 6.0.

For the compound `N#CCC1(n2cc(-c3ccnc4[nH]ccc34)cn2)CN(C2CCN(C(=O)Nc3ccncc3C(F)(F)F)CC2)C1` [Example 307, 4-{3-(cyanomethyl)-3-[4-(1H-pyrrolo[2,3-b]pyridin-4-yl)-1H-pyrazol-1-yl]azetidin-1-yl}-N-[3-(trifluoromethyl)pyridin-4-yl]piperidine-1-carboxamide], the “IC50 Ratio JAK2/JAK1” value was found to be 8.8.

With `N#CCC1(n2ccc(-c3ncnc4[nH]ccc34)c2)CN(C2CCN(C(=O)c3cc(F)ccc3C(F)(F)F)CC2)C1` [Example 266, {1-{1-[5-fluoro-2-(trifluoromethyl)benzoyl]piperidin-4-yl}-3-[3-(7H-pyrrolo[2,3-d]pyrimidin-4-yl)-1H-pyrrol-1-yl]azetidin-3-yl}acetonitrile], the “IC50 Ratio JAK2/JAK1” value was 6.6.

For the compound `COc1ccc(CN2CCC(N3CC(CC#N)(n4cc(-c5ncnc6[nH]ccc56)cn4)C3)CC2)c(Cl)c1OC` [Example 239, {1-[1-(2-chloro-3,4-dimethoxybenzyl)piperidin-4-yl]-3-[4-(7H-pyrrolo[2,3-d]pyrimidin-4-yl)-1H-pyrazol-1-yl]azetidin-3-yl}acetonitrile], the “IC50 Ratio JAK2/JAK1” value is given as 2.3.

Consider `N#CCC1(n2cc(-c3ncnc4[nH]ccc34)cn2)CN(C2CCN(C(=O)OCc3ccc(F)cc3F)CC2)C1` [Example 393, 2,4-difluorobenzyl 4-{3-(cyanomethyl)-3-[4-(7H-pyrrolo[2,3-d]pyrimidin-4-yl)-1H-pyrazol-1-yl]azetidin-1-yl}piperidine-1-carboxylate], for which the “IC50 Ratio JAK2/JAK1” value is given as 7.1.

Take `N#CCC1(n2cc(-c3ncnc4[nH]ccc34)cn2)CN(C2CCN(C(=O)Cc3ccccc3)CC2)C1` [Example 109, {1-[1-(phenylacetyl)piperidin-4-yl]-3-[4-(7H-pyrrolo[2,3-d]pyrimidin-4-yl)-1H-pyrazol-1-yl]azetidin-3-yl} acetonitrile]: the “IC50 Ratio JAK2/JAK1” value turned out to be 1.1.

`N#CCC1(n2ccc(-c3ncnc4[nH]ccc34)c2)CN(C2CCN(C(=O)c3ccc(F)c(C(F)(F)F)c3)CC2)C1` [Example 275, {1-{1-[4-fluoro-3-(trifluoromethyl)benzoyl]piperidin-4-yl}-3-[3-(7H-pyrrolo[2,3-d]pyrimidin-4-yl)-1H-pyrrol-1-yl]azetidin-3-yl}acetonitrile]: the “IC50 Ratio JAK2/JAK1” value was 3.1.

In the case of `Cc1cc(C(=O)N2CCC(N3CC(CC#N)(n4cc(-c5ncnc6[nH]ccc56)cn4)C3)CC2)cs1` [Example 73, {1-{1-[(5-methyl-3-thienyl)carbonyl]piperidin-4-yl}-3-[4-(7H-pyrrolo[2,3-d]pyrimidin-4-yl)-1H-pyrazol-1-yl]azetidin-3-yl} acetonitrile], the “IC50 Ratio JAK2/JAK1” value is recorded as 4.2.

Turning to `N#CCC1(n2cc(-c3c(F)cnc4[nH]ccc34)cn2)CN(C2CCN(C(=O)c3c(F)cncc3F)CC2)C1` [Example 321, {1-[1-(3,5-difluoroisonicotinoyl)piperidin-4-yl]-3-[4-(5-fluoro-1H-pyrrolo[2,3-b]pyridin-4-yl)-1H-pyrazol-1-yl]azetidin-3-yl}acetonitrile], the “IC50 Ratio JAK2/JAK1” value amounted to 3.0.

Regarding `Cc1ccsc1C(=O)N1CCC(N2CC(CC#N)(n3cc(-c4ncnc5[nH]ccc45)cn3)C2)CC1` [Example 78, {1-{1-[(3-methyl-2-thienyl)carbonyl]piperidin-4-yl}-3-[4-(7H-pyrrolo[2,3-d]pyrimidin-4-yl)-1H-pyrazol-1-yl]azetidin-3-yl}acetonitrile], the “IC50 Ratio JAK2/JAK1” value was found to be 5.4.

Regarding `N#CCC1(n2ccc(-c3ncnc4[nH]ccc34)c2)CN(C2CCN(C(=O)c3cccc(OC(F)(F)F)c3F)CC2)C1` [Example 281, {1-{1-[2-fluoro-3-(trifluoromethoxy)benzoyl]piperidin-4-yl}-3-[3-(7H-pyrrolo[2,3-d]pyrimidin-4-yl)-1H-pyrrol-1-yl]azetidin-3-yl}acetonitrile], the “IC50 Ratio JAK2/JAK1” value was 10.0.

In the case of `COC(=O)c1cc(F)ccc1NC(=O)N1CCC(N2CC(CC#N)(n3cc(-c4ncnc5[nH]ccc45)cn3)C2)CC1` [Example 207, methyl 2-{[(4-{3-(cyanomethyl)-3-[4-(7H-pyrrolo[2,3-d]pyrimidin-4-yl)-1H-pyrazol-1-yl]azetidin-1-yl}piperidin-1-yl)carbonyl]amino}-5-fluorobenzoate], the “IC50 Ratio JAK2/JAK1” value worked out at 2.5.

On to `N#CCC1(n2cc(-c3c(C#N)cnc4[nH]ccc34)cn2)CN(C2CCN(C(=O)c3cc(C#N)cc(C#N)c3)CC2)C1` [Example 338, 5-[(4-{3-(cyanomethyl)-3-[4-(5-cyano-1H-pyrrolo[2,3-b]pyridin-4-yl)-1H-pyrazol-1-yl]azetidin-1-yl}piperidin-1-yl)carbonyl]isophthalonitrile], for which the “IC50 Ratio JAK2/JAK1” value was 7.4.

On to `N#CCC1(n2cc(-c3ncnc4[nH]ccc34)cn2)CN(C2CCN(C(=O)c3ccc(-c4cccc5cnccc45)c(F)c3)CC2)C1` [Example 130, {1-[1-(3-fluoro-4-isoquinolin-5-ylbenzoyl)piperidin-4-yl]-3-[4-(7H-pyrrolo[2,3-d]pyrimidin-4-yl)-1H-pyrazol-1-yl]azetidin-3-yl}acetonitrile], for which the “IC50 Ratio JAK2/JAK1” value is on record as 7.1.

Consider `CC1(COC(=O)N2CCC(N3CC(CC#N)(n4cc(-c5ncnc6[nH]ccc56)cn4)C3)CC2)CC1` [Example 392, (1-methylcyclopropyl)methyl 4-{3-(cyanomethyl)-3-[4-(7H-pyrrolo[2,3-d]pyrimidin-4-yl)-1H-pyrazol-1-yl]azetidin-1-yl}piperidine-1-carboxylate], for which the “IC50 Ratio JAK2/JAK1” value came out at 5.6.

Regarding `N#CCC1(n2cc(-c3ncnc4[nH]ccc34)cn2)CN(C2CCN(C(=O)c3c(F)cccc3C(F)(F)F)CC2)C1` [Example 45, {1-{1-[2-fluoro-6-(trifluoromethyl)benzoyl]piperidin-4-yl}-3-[4-(7H-pyrrolo[2,3-d]pyrimidin-4-yl)-1H-pyrazol-1-yl]azetidin-3-yl}acetonitrile], the “IC50 Ratio JAK2/JAK1” value is recorded as 3.1.

Take `N#CCC1(n2cc(-c3ncnc4[nH]ccc34)cn2)CN(C2CCN(C(=O)c3c(F)cccc3F)CC2)C1` [Example 44, {1-[1-(2,6-difluorobenzoyl)piperidin-4-yl]-3-[4-(7H-pyrrolo[2,3-d]pyrimidin-4-yl)-1H-pyrazol-1-yl]azetidin-3-yl}acetonitrile]: the “IC50 Ratio JAK2/JAK1” value stood at 2.9.

(Values after patent US10695337B2, “Piperidin-4-yl azetidine derivatives as JAK1 inhibitors” (Incyte Corporation, priority 2010, dated 2020).)
